Results as given in US20060251714A1, “Pharmaceutical formulations of amyloid inhibiting compounds” (priority 2005, published 2006).

Experiment: Gastrointestinal tolerability of capsules (solid dosage form)
Format: in vivo
Details: solid dosage form (capsules, Table 2)
Experimental: Furthermore, the non-hygroscopic nature of the acid form makes it desirable as active pharmaceutical ingredient. To further protect against any possible gastrointestinal intolerance that could result from the acid form, the tablets are enteric-coated and a modified-release agent is added to control any rapid release of the drug in the stomach and the intestine, respectively.

With `NCCCS(=O)(=O)[O-].[Na+]` [3-amino-1-propanesulfonic acid sodium salt] the “gastrointestinal symptoms (i.e. nausea and vomiting)” value was “associated with gastrointestinal symptoms”.
